Measured values taken from PMC12586182 (Frontiers in Oncology, 2025).

Assays:
Assay in all cases: Kinase panel profiling at 1 µmol/L (mobility shift assay, Carna)
Type in all cases: biochemical
Conditions in all cases: 1 µmol/L of BTK inhibitor
[1] = target: T1, FMS (Homo sapiens, UniProt P07333)
T1 construct: purchased Carna Biosciences

[2] = target: T2, BRSK2 (Homo sapiens, UniProt Q8IWQ3)
T2 construct: purchased Carna Biosciences
T2 sequence (Q8IWQ3 1-736): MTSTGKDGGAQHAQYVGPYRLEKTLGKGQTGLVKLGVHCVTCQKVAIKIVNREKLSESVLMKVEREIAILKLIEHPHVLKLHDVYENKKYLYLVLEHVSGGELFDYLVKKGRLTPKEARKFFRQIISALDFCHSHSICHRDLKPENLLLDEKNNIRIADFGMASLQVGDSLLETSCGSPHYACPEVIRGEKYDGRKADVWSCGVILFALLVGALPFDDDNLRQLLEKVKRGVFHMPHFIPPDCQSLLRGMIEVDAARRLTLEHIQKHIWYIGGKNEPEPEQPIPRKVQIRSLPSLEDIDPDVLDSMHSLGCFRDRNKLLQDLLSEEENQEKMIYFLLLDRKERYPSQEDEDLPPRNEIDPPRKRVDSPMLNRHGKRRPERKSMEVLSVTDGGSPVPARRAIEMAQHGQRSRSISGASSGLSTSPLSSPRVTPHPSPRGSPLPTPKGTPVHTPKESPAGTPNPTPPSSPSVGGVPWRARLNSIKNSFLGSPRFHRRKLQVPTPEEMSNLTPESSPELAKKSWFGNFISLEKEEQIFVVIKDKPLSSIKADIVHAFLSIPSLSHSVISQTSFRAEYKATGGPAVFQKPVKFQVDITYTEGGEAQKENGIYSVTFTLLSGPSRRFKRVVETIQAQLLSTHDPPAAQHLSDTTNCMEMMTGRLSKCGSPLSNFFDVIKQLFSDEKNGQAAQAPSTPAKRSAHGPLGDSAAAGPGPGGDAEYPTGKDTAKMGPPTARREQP

[3] = target: T3, PIM1 (Homo sapiens, UniProt P11309)
T3 construct: purchased Carna Biosciences
T3 sequence (P11309 whole entry): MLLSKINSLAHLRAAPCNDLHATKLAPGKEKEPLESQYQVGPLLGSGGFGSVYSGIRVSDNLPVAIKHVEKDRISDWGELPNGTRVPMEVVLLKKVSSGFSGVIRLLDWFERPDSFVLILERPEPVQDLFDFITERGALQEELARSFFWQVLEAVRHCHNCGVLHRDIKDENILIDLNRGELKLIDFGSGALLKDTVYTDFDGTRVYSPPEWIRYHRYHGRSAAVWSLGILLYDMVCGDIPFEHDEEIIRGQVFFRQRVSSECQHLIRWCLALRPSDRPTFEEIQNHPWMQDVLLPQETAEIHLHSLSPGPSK

[4] = target: T4, HGK (Homo sapiens, UniProt O95819)
T4 construct: purchased Carna Biosciences
T4 sequence (O95819 whole entry): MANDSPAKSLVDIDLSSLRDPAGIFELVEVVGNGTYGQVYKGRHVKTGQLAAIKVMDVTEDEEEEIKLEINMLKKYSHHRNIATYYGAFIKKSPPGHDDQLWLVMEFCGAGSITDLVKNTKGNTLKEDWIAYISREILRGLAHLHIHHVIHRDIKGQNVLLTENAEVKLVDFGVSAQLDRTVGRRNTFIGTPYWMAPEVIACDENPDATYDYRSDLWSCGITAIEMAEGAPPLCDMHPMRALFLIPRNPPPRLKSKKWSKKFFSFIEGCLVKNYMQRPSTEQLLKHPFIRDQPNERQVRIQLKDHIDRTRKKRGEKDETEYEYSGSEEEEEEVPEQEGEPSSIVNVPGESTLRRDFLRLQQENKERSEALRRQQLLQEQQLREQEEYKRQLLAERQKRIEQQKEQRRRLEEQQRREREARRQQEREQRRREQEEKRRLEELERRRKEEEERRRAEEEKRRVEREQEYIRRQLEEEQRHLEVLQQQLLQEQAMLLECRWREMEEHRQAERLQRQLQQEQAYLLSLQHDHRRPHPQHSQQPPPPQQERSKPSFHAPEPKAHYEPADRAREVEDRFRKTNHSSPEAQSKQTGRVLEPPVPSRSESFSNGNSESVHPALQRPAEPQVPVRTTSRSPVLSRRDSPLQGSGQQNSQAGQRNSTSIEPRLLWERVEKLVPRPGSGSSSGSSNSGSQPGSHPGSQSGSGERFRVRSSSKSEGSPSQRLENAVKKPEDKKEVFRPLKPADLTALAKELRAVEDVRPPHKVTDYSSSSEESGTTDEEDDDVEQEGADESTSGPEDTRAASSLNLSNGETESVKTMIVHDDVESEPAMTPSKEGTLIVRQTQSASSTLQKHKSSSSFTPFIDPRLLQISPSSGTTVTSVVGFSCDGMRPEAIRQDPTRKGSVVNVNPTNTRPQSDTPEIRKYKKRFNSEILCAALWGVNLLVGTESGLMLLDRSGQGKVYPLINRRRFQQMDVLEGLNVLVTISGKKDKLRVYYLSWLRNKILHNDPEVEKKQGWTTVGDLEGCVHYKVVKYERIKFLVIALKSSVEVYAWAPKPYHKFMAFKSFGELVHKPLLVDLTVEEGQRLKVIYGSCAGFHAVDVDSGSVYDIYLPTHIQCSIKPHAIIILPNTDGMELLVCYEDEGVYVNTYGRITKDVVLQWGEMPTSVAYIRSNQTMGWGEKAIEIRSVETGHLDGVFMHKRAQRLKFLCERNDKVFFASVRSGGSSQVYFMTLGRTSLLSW

[5] = target: T5, EPHA8 (Homo sapiens, UniProt P29322)
T5 construct: purchased Carna Biosciences
T5 sequence (P29322 28-1005): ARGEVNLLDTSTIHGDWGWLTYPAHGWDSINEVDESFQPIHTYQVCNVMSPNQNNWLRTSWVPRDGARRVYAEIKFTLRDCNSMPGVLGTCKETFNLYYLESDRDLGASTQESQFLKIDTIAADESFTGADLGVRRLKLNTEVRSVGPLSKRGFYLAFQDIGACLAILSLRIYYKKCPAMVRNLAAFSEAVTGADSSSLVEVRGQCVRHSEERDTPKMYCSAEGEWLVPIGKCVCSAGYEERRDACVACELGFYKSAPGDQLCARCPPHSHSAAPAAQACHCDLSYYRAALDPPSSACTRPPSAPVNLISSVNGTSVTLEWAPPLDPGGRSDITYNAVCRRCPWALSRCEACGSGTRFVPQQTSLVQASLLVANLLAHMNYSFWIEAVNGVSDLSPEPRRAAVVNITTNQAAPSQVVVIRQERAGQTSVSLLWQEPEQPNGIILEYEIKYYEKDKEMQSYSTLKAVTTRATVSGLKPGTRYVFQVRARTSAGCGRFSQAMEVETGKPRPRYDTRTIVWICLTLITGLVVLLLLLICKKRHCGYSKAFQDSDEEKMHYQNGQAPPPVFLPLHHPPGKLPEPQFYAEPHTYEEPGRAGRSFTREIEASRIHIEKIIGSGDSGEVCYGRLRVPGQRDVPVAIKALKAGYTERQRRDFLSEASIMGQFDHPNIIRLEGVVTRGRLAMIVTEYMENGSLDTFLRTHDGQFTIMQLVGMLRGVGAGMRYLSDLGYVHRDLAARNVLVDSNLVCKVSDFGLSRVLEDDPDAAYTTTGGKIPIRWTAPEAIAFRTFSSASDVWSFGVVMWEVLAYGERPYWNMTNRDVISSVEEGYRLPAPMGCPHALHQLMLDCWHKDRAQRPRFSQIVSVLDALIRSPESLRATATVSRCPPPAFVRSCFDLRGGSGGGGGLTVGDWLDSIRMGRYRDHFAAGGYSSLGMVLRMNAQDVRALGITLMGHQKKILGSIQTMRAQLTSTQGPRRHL

[6] = target: T6, CDK3/CycE1 (Homo sapiens, UniProt Q00526)
T6 construct: purchased Carna Biosciences
T6 sequence (Q00526 whole entry): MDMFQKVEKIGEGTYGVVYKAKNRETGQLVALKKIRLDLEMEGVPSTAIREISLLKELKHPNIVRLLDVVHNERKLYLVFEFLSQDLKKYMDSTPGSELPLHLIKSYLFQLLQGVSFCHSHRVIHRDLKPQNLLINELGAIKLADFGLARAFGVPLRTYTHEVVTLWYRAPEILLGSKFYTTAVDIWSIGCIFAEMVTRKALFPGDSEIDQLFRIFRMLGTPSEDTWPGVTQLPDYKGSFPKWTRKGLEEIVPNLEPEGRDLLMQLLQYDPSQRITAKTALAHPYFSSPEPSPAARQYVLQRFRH
T6 sequence (P24864 whole entry partner): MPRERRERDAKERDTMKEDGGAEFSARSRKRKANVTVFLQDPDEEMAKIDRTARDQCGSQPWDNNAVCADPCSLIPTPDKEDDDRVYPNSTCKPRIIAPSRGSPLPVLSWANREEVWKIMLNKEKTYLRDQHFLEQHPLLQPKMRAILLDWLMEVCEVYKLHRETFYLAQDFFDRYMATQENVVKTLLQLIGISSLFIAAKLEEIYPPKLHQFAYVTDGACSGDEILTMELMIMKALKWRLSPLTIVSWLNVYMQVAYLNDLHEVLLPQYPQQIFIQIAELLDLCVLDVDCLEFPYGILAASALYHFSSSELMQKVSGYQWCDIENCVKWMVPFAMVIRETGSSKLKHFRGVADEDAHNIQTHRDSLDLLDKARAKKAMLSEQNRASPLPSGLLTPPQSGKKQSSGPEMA

[7] = target: T7, AMPKα1/β1/γ1 (Homo sapiens, UniProt Q13131)
T7 construct: purchased Carna Biosciences
T7 sequence (Q13131 whole entry): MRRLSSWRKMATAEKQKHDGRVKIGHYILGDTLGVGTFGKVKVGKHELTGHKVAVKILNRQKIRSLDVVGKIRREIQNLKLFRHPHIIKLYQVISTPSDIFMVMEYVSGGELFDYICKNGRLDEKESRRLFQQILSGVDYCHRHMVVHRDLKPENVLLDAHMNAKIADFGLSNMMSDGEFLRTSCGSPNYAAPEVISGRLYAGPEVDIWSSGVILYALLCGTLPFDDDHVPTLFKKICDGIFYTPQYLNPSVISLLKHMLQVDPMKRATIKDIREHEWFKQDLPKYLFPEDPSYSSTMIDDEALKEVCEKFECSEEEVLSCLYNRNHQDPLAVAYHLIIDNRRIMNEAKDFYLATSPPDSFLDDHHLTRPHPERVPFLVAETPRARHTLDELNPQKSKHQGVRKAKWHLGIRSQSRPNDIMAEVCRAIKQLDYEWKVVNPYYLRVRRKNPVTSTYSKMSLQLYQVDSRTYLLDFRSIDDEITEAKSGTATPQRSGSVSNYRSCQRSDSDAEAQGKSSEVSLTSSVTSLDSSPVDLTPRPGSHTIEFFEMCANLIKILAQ
T7 sequence (Q9Y478 whole entry partner): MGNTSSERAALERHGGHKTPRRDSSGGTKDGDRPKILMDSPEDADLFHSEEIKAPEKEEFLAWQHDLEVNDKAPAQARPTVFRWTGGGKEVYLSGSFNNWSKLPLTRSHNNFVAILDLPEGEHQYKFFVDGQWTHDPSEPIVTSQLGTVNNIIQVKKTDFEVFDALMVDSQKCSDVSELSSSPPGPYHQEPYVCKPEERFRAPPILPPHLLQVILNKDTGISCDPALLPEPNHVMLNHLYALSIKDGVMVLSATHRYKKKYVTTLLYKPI
T7 sequence (P54619 whole entry partner): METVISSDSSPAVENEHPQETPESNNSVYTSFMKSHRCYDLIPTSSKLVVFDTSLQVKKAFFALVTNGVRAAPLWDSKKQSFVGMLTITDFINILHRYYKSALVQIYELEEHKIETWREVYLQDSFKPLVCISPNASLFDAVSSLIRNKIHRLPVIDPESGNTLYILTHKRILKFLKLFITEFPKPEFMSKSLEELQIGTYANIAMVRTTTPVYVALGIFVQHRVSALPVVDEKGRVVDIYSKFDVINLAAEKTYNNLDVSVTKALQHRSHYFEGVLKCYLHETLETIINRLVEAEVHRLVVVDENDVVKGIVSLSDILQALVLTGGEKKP

[8] = target: T8, PHKG2 (Homo sapiens, UniProt P15735)
T8 construct: purchased Carna Biosciences
T8 sequence (P15735 1-406): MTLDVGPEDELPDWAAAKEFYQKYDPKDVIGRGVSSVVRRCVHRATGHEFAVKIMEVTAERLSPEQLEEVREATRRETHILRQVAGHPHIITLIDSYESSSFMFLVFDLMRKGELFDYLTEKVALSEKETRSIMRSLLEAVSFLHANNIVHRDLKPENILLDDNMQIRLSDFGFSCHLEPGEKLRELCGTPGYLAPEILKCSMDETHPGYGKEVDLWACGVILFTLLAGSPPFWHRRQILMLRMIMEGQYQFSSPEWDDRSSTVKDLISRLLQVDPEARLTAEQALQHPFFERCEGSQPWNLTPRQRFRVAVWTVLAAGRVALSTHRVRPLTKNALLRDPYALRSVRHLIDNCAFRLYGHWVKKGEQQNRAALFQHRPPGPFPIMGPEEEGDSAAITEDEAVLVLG

[9] = target: T9, p38δ (Homo sapiens, UniProt O15264)
T9 construct: purchased Carna Biosciences
T9 sequence (O15264 1-365): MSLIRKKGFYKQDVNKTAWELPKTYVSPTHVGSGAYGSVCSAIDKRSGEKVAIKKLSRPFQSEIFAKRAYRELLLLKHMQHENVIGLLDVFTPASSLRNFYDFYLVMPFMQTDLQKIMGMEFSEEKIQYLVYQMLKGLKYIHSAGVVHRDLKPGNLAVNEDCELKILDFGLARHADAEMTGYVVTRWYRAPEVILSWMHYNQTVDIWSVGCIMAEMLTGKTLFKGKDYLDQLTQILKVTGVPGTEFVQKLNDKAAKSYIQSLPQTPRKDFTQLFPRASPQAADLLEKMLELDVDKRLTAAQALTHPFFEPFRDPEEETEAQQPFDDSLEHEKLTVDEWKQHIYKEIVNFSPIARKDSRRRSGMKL

[10] = target: T10, CDK2/CycA2 (Homo sapiens, UniProt P24941)
T10 construct: purchased Carna Biosciences

T1 sequence (P07333 20-972): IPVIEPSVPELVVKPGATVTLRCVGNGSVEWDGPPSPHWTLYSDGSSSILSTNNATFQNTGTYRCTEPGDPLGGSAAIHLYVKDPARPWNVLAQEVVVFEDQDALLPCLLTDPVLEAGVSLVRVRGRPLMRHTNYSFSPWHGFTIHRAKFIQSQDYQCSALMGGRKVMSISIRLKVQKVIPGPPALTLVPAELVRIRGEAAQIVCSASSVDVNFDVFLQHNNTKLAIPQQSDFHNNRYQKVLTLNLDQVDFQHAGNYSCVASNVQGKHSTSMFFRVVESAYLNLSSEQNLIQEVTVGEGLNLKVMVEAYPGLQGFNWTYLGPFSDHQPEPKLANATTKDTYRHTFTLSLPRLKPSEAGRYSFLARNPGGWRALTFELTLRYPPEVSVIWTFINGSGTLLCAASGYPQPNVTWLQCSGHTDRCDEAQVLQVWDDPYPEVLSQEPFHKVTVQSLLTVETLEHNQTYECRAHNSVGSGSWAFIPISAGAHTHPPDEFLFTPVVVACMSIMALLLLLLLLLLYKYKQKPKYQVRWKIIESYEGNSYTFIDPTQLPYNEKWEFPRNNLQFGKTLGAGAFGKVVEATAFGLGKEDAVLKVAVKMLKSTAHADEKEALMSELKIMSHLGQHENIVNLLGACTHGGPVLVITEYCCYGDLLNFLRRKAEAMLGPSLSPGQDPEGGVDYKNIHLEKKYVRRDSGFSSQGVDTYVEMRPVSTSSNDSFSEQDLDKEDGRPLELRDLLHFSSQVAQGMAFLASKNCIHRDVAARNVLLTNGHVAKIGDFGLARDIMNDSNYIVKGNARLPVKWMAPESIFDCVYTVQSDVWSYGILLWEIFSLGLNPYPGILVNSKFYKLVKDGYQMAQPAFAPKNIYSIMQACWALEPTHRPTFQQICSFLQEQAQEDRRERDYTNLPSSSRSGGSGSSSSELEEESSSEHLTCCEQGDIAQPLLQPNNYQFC

Compound | Percentage inhibition of kinase enzyme activity [1] | Percentage inhibition of kinase enzyme activity [2] | Percentage inhibition of kinase enzyme activity [3] | Percentage inhibition of kinase enzyme activity [4] | Percentage inhibition of kinase enzyme activity [5] | Percentage inhibition of kinase enzyme activity [6] | Percentage inhibition of kinase enzyme activity [7] | Percentage inhibition of kinase enzyme activity [8] | Percentage inhibition of kinase enzyme activity [9] | Percentage inhibition of kinase enzyme activity [10]
CC#CC(=O)N1CCC[C@H]1c1nc(-c2ccc(C(=O)Nc3ccccn3)cc2)c2c(N)nccn12 [acalabrutinib] | 7.76% | -10.15% | -4.28% | -1.42% | 6.51% | -6.14% | -4.92% | 0.00605% | -1.74% | -5.19%
C=CC(=O)N1CCC[C@@H](n2nc(-c3ccc(Oc4ccccc4)cc3)c3c(N)ncnc32)C1 [ibrutinib] | 18.52% | 15.84% |  | -0.0249% | 54.68% | 0.49% |  | 0.82% | -3.68% | -11.88%
O=C(c1ccc(Oc2ccccc2)cc1Cl)c1c[nH]c2ncnc(N[C@@H]3CC[C@@H](CO)OC3)c12 [nemtabrutinib] | 101.94% | 15.84% | -15.07% | 72.78% | 50.84% | 7.04% | 12.21% | 5.39% | -5.79% | -1.69%
COc1ccc(F)cc1C(=O)NCc1ccc(-c2nn([C@@H](C)C(F)(F)F)c(N)c2C(N)=O)cc1 [pirtobrutinib] | -8.86% | 7.17% | 3.95% | 3.60% | -19.48% | -4.77% | -7.93% | 7.27% | -1.92% | -4.56%
C=CC(=O)N1CCC([C@@H]2CCNc3c(C(N)=O)c(-c4ccc(Oc5ccccc5)cc4)nn32)CC1 [zanubrutinib] | 82.03% |  |  |  | -2.10% |  |  |  |  | 
